Settings: Cohort 1 200 mg QD

For `CC(C)NC(=O)COc1cccc(-c2nc(Nc3ccc4[nH]ncc4c3)c3ccccc3n2)c1` [Belumosudil, 2-{3-[4-(1H-indazol-5-ylamino)-2-quinazolinyl]phenoxy}-N-(propan-2-yl) acetamide], the “Diarrhoea: Affected/At Risk” value was 6/17, the “Diarrhoea: Affected/At Risk (%)” value was “(35.29%)” and the “Dizziness: # Events” value was 0. For the same molecule, the “Dizziness: Affected/At Risk” value was 0/17, the “Dizziness: Affected/At Risk (%)” value was “(0%)” and the “Drug eruption: # Events” value was 0. The “Drug eruption: Affected/At Risk” value was 0/17, the “Drug eruption: Affected/At Risk (%)” value was “(0%)” and the “Dry eye: # Events” value was 3. For the same molecule, the “Dry eye: Affected/At Risk” value was 2/17, the “Dry eye: Affected/At Risk (%)” value was “(11.76%)” and the “Dry skin: # Events” value was 1. The “Dry skin: Affected/At Risk” value was 1/17, the “Dry skin: Affected/At Risk (%)” value was “(5.88%)” and the “Dyspepsia: # Events” value was 0. For the same molecule, the “Dyspepsia: Affected/At Risk” value was 0/17, the “Dyspepsia: Affected/At Risk (%)” value was “(0%)” and the “Dysphagia: # Events” value was 1. The “Dysphagia: Affected/At Risk” value was 1/17, the “Dysphagia: Affected/At Risk (%)” value was “(5.88%)” and the “Dyspnoea exertional: # Events” value was 1. For the same molecule, the “Dyspnoea exertional: Affected/At Risk” value was 1/17, the “Dyspnoea exertional: Affected/At Risk (%)” value was “(5.88%)” and the “Dyspnoea: # Events” value was 2. The “Dyspnoea: Affected/At Risk” value was 2/17, the “Dyspnoea: Affected/At Risk (%)” value was “(11.76%)” and the “Embolism: # Events” value was 1. For the same molecule, the “Embolism: Affected/At Risk” value was 1/17, the “Embolism: Affected/At Risk (%)” value was “(5.88%)” and the “Enamel anomaly: # Events” value was 0. The “Enamel anomaly: Affected/At Risk” value was 0/17, the “Enamel anomaly: Affected/At Risk (%)” value was “(0%)” and the “Epidural lipomatosis: # Events” value was 1. The “Epidural lipomatosis: Affected/At Risk” value was 1/17, the “Epidural lipomatosis: Affected/At Risk (%)” value was “(5.88%)” and the “Epstein-Barr virus infection: # Events” value was 1. For the same molecule, the “Epstein-Barr virus infection: Affected/At Risk” value was 1/17, the “Epstein-Barr virus infection: Affected/At Risk (%)” value was “(5.88%)” and the “Erectile dysfunction: # Events” value was 4. The “Erectile dysfunction: Affected/At Risk” value was 2/17, the “Erectile dysfunction: Affected/At Risk (%)” value was “(11.76%)” and the “Eye irritation: # Events” value was 1. For the same molecule, the “Eye irritation: Affected/At Risk” value was 1/17, the “Eye irritation: Affected/At Risk (%)” value was “(5.88%)” and the “Eye pain: # Events” value was 0. The “Eye pain: Affected/At Risk” value was 0/17, the “Eye pain: Affected/At Risk (%)” value was “(0%)” and the “Eye pruritus: # Events” value was 0. The “Eye pruritus: Affected/At Risk” value was 0/17, the “Eye pruritus: Affected/At Risk (%)” value was “(0%)” and the “Fall: # Events” value was 2. The “Fall: Affected/At Risk” value was 2/17, the “Fall: Affected/At Risk (%)” value was “(11.76%)” and the “Fatigue: # Events” value was 7. The “Fatigue: Affected/At Risk” value was 6/17, the “Fatigue: Affected/At Risk (%)” value was “(35.29%)” and the “Flatulence: # Events” value was 0. The “Flatulence: Affected/At Risk” value was 0/17, the “Flatulence: Affected/At Risk (%)” value was “(0%)” and the “Flushing: # Events” value was 0. The “Flushing: Affected/At Risk” value was 0/17, the “Flushing: Affected/At Risk (%)” value was “(0%)” and the “Fungal infection: # Events” value was 1. The “Fungal infection: Affected/At Risk” value was 1/17, the “Fungal infection: Affected/At Risk (%)” value was “(5.88%)” and the “Gamma-glutamyltransferase increased: # Events” value was 9. For the same molecule, the “Gamma-glutamyltransferase increased: Affected/At Risk” value was 4/17, the “Gamma-glutamyltransferase increased: Affected/At Risk (%)” value was “(23.53%)” and the “Gastric ulcer: # Events” value was 0. The “Gastric ulcer: Affected/At Risk” value was 0/17, the “Gastric ulcer: Affected/At Risk (%)” value was “(0%)” and the “Gastrooesophageal reflux disease: # Events” value was 2. The “Gastrooesophageal reflux disease: Affected/At Risk” value was 2/17, the “Gastrooesophageal reflux disease: Affected/At Risk (%)” value was “(11.76%)” and the “Generalised oedema: # Events” value was 1. For the same molecule, the “Generalised oedema: Affected/At Risk” value was 1/17, the “Generalised oedema: Affected/At Risk (%)” value was “(5.88%)” and the “Genital infection fungal: # Events” value was 0. The “Genital infection fungal: Affected/At Risk” value was 0/17, the “Genital infection fungal: Affected/At Risk (%)” value was “(0%)” and the “Glaucoma: # Events” value was 0. For the same molecule, the “Glaucoma: Affected/At Risk” value was 0/17, the “Glaucoma: Affected/At Risk (%)” value was “(0%)” and the “Glucose urine present: # Events” value was 3. For the same molecule, the “Glucose urine present: Affected/At Risk” value was 2/17, the “Glucose urine present: Affected/At Risk (%)” value was “(11.76%)” and the “Graft versus host disease in gastrointestinal tract: # Events” value was 1. For the same molecule, the “Graft versus host disease in gastrointestinal tract: Affected/At Risk” value was 1/17, the “Graft versus host disease in gastrointestinal tract: Affected/At Risk (%)” value was “(5.88%)” and the “Gynaecomastia: # Events” value was 0. The “Gynaecomastia: Affected/At Risk” value was 0/17, the “Gynaecomastia: Affected/At Risk (%)” value was “(0%)” and the “Haematuria: # Events” value was 1. The “Haematuria: Affected/At Risk” value was 1/17, the “Haematuria: Affected/At Risk (%)” value was “(5.88%)” and the “Hair growth abnormal: # Events” value was 1. The “Hair growth abnormal: Affected/At Risk” value was 1/17, the “Hair growth abnormal: Affected/At Risk (%)” value was “(5.88%)” and the “Headache: # Events” value was 4. For the same molecule, the “Headache: Affected/At Risk” value was 4/17, the “Headache: Affected/At Risk (%)” value was “(23.53%)” and the “Hodgkin's disease recurrent: # Events” value was 1. For the same molecule, the “Hodgkin's disease recurrent: Affected/At Risk” value was 1/17, the “Hodgkin's disease recurrent: Affected/At Risk (%)” value was “(5.88%)” and the “Hordeolum: # Events” value was 1. The “Hordeolum: Affected/At Risk” value was 1/17, the “Hordeolum: Affected/At Risk (%)” value was “(5.88%)” and the “Hot flush: # Events” value was 1. The “Hot flush: Affected/At Risk” value was 1/17, the “Hot flush: Affected/At Risk (%)” value was “(5.88%)” and the “Hyperglycemia: # Events” value was 2. For the same molecule, the “Hyperglycemia: Affected/At Risk” value was 2/17, the “Hyperglycemia: Affected/At Risk (%)” value was “(11.76%)” and the “Hyperhidrosis: # Events” value was 0. The “Hyperhidrosis: Affected/At Risk” value was 0/17, the “Hyperhidrosis: Affected/At Risk (%)” value was “(0%)” and the “Hyperkalaemia: # Events” value was 7. For the same molecule, the “Hyperkalaemia: Affected/At Risk” value was 3/17, the “Hyperkalaemia: Affected/At Risk (%)” value was “(17.65%)” and the “Hypertension: # Events” value was 8. For the same molecule, the “Hypertension: Affected/At Risk” value was 5/17, the “Hypertension: Affected/At Risk (%)” value was “(29.41%)” and the “Hyperthyroidism: # Events” value was 0. The “Hyperthyroidism: Affected/At Risk” value was 0/17, the “Hyperthyroidism: Affected/At Risk (%)” value was “(0%)” and the “Hypertriglyceridaemia: # Events” value was 0. The “Hypertriglyceridaemia: Affected/At Risk” value was 0/17, the “Hypertriglyceridaemia: Affected/At Risk (%)” value was “(0%)” and the “Hyperuricaemia: # Events” value was 6. For the same molecule, the “Hyperuricaemia: Affected/At Risk” value was 1/17, the “Hyperuricaemia: Affected/At Risk (%)” value was “(5.88%)” and the “Hypoaesthesia: # Events” value was 2. For the same molecule, the “Hypoaesthesia: Affected/At Risk” value was 1/17, the “Hypoaesthesia: Affected/At Risk (%)” value was “(5.88%)” and the “Hypocalcaemia: # Events” value was 0. The “Hypocalcaemia: Affected/At Risk” value was 0/17 and the “Hypocalcaemia: Affected/At Risk (%)” value was “(0%)”.

Reference: patent US20250255867A1 (Kadmon Corporation, LLC, priority 2022, published 2025)
